From ChEMBL document CHEMBL1201862, “PubChem BioAssay data set” (2004)
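Growth conditions: 96-well plates. Treatment: test compound, 48 hours, 5 concentrations. Analysis: linear interpolation between bracketing concentrations; unreached endpoints set to highest concentration. GI50 is the concentration that inhibits growth by half.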 Active and inactive are the calls of the source. Cut-off read from the data, not from the text of the source: active = GI50 up to about 1.1 µM and inactive = higher.

What was measured:
Assay in all cases: inhibition of tumour cell growth, NCI panel, 48 h
[1] = test system: SNB-19
[2] = test system: COLO 205
[3] = test system: SF-268
[4] = test system: CAKI-1
[5] = test system: SF-295
[6] = test system: NCI-H522
[7] = test system: MDA-MB-435
[8] = test system: SNB-75
[9] = test system: PC-3
[10] = test system: IGROV-1
[11] = test system: EKVX
[12] = test system: T47D
[13] = test system: ACHN
[14] = test system: Hs-578T
[15] = test system: DU-145
[16] = test system: UACC-62
[17] = test system: M14
[18] = test system: MCF7
[19] = test system: SK-MEL-5
[20] = test system: HL-60

Nc1nc(I)nc2c1ncn2C1OC(COS(N)(=O)=O)C(O)C1O (stereo unspecified)
GI50 [1]: < 0.01 µM (active)
GI50 [2]: < 0.01 µM (active)
GI50 [3]: < 0.01 µM (active)
GI50 [4]: 0.0336 µM (active)
GI50 [5]: 0.0393 µM (active)
GI50 [6]: < 0.01 µM (active)
GI50 [7]: < 0.01 µM (active)
GI50 [8]: < 0.01 µM (active)
GI50 [9]: < 0.01 µM (active)
GI50 [10]: 0.0128 µM (active)
GI50 [11]: < 0.0121 µM (active)
GI50 [12]: < 0.01 µM (active)
GI50 [13]: < 0.0117 µM (active)
GI50 [14]: < 0.01 µM (active)
GI50 [15]: < 0.01 µM (active)
GI50 [16]: 0.0226 µM (active)
GI50 [17]: < 0.0104 µM (active)
GI50 [18]: < 0.01 µM (active)
GI50 [19]: < 0.01 µM (active)

Cc1cc2nnn(C3CCCCO3)c2cc1C (stereo unspecified)
GI50 [1]: > 100 µM (inactive)
GI50 [2]: > 100 µM (inactive)
GI50 [4]: > 100 µM (inactive)
GI50 [5]: > 100 µM (inactive)
GI50 [6]: > 100 µM (inactive)
GI50 [7]: > 100 µM (inactive)
GI50 [8]: 88.1 µM (inactive)
GI50 [9]: > 100 µM (inactive)
GI50 [10]: > 100 µM (inactive)
GI50 [11]: > 100 µM (inactive)
GI50 [12]: 95.5 µM (inactive)
GI50 [13]: > 100 µM (inactive)
GI50 [14]: > 100 µM (inactive)
GI50 [15]: > 100 µM (inactive)
GI50 [16]: > 100 µM (inactive)
GI50 [17]: > 100 µM (inactive)
GI50 [18]: > 100 µM (inactive)
GI50 [19]: > 100 µM (inactive)

CCOC(=O)NC(=S)NC(C)c1ccccc1 (stereo unspecified)
GI50 [1]: > 100 µM (inactive)
GI50 [2]: > 100 µM (inactive)
GI50 [3]: > 100 µM (inactive)
GI50 [4]: > 100 µM (inactive)
GI50 [5]: > 100 µM (inactive)
GI50 [6]: > 100 µM (inactive)
GI50 [7]: > 100 µM (inactive)
GI50 [8]: > 100 µM (inactive)
GI50 [9]: > 100 µM (inactive)
GI50 [10]: > 100 µM (inactive)
GI50 [11]: > 100 µM (inactive)
GI50 [12]: 98.6 µM (inactive)
GI50 [13]: > 100 µM (inactive)
GI50 [14]: > 100 µM (inactive)
GI50 [15]: > 100 µM (inactive)
GI50 [16]: > 100 µM (inactive)
GI50 [17]: > 100 µM (inactive)
GI50 [18]: > 100 µM (inactive)
GI50 [19]: > 100 µM (inactive)

COC1=C(OC)C(=O)C(Cc2c(C)nc3sc(C)cn23)=C(C)C1=O
GI50 [1]: 19 µM (inactive)
GI50 [2]: 19.3 µM (inactive)
GI50 [3]: 17.7 µM (inactive)
GI50 [4]: 20.4 µM (inactive)
GI50 [5]: 19.1 µM (inactive)
GI50 [6]: 17.4 µM (inactive)
GI50 [7]: 17.9 µM (inactive)
GI50 [9]: 23.4 µM (inactive)
GI50 [10]: 17.4 µM (inactive)
GI50 [11]: 16.7 µM (inactive)
GI50 [12]: 34.1 µM (inactive)
GI50 [13]: 15.1 µM (inactive)
GI50 [14]: 23.9 µM (inactive)
GI50 [15]: 20.2 µM (inactive)
GI50 [20]: 11.6 µM (inactive)
GI50 [16]: 14 µM (inactive)
GI50 [17]: 17 µM (inactive)
GI50 [18]: 20.5 µM (inactive)
GI50 [19]: 15.2 µM (inactive)

NC(=O)N=C(N(Cc1ccccc1)Cc1ccccc1)N(Cc1ccccc1)Cc1ccccc1
GI50 [1]: > 43.9 µM (inactive)
GI50 [3]: 37.2 µM (inactive)
GI50 [4]: > 100 µM (inactive)
GI50 [5]: 3.91 µM (inactive)
GI50 [6]: 6.43 µM (inactive)
GI50 [7]: 3.72 µM (inactive)
GI50 [8]: 13.3 µM (inactive)
GI50 [9]: 4.17 µM (inactive)
GI50 [10]: 8.97 µM (inactive)
GI50 [11]: > 100 µM (inactive)
GI50 [12]: > 100 µM (inactive)
GI50 [13]: > 24.4 µM (inactive)
GI50 [14]: 97.5 µM (inactive)
GI50 [15]: > 100 µM (inactive)
GI50 [16]: 8.39 µM (inactive)
GI50 [18]: 7.29 µM (inactive)
GI50 [19]: > 20.3 µM (inactive)

CC(OC(C)(C)C)[C@H](NC(=O)OC(C)(C)C)C(=O)O (stereo partly specified)
GI50 [1]: > 100 µM (inactive)
GI50 [2]: > 100 µM (inactive)
GI50 [3]: > 100 µM (inactive)
GI50 [4]: > 100 µM (inactive)
GI50 [5]: > 100 µM (inactive)
GI50 [6]: > 100 µM (inactive)
GI50 [7]: > 100 µM (inactive)
GI50 [9]: > 100 µM (inactive)
GI50 [10]: > 100 µM (inactive)
GI50 [11]: > 100 µM (inactive)
GI50 [12]: > 100 µM (inactive)
GI50 [13]: > 100 µM (inactive)
GI50 [14]: > 100 µM (inactive)
GI50 [15]: > 100 µM (inactive)
GI50 [20]: > 100 µM (inactive)
GI50 [16]: > 100 µM (inactive)
GI50 [17]: > 100 µM (inactive)
GI50 [18]: > 100 µM (inactive)
GI50 [19]: > 100 µM (inactive)
